Laboratory results published in publication PMC10523748, “Cytotoxicity, acute and sub-chronic toxicities of the leaves of Bauhinia thonningii (Schumach.) Milne-Redh. (Caesalpiniaceae)” (BMC Complementary Medicine and Therapies, 2023).

Experiments:
[1] = system: HCT116 p53^−/− cells; assay: RRA cytotoxicity, HCT116 p53^−/−; conditions: Homo sapiens, HCT-116, 72 h
[2] = system: CEM/ADR5000 cells; set-up: method as in PMID 12064912; conditions: cited from earlier work
[3] = system: CCRF-CEM leukemia cells; assay: Resazurin reduction assay (RRA) cytotoxicity, CCRF-CEM; conditions: 72 h
[4] = system: HCT116 p53^+/+ colon adenocarcinoma cells; assay: RRA cytotoxicity, HCT116 p53^+/+; conditions: Homo sapiens, HCT-116, 72 h
[5] = system: CCRF-CEM cells; set-up: method as in PMID 12064912; conditions: cited from earlier work
[6] = system: MDA-MB-231-pcDNA breast adenocarcinoma cells; assay: RRA cytotoxicity, MDA-MB-231-pcDNA; conditions: Homo sapiens, 72 h
[7] = system: U87MG.ΔEGFR cells; assay: RRA cytotoxicity, U87MG.ΔEGFR; conditions: Homo sapiens, 72 h
[8] = system: 9 tested cancer cell lines; assay: RRA cytotoxicity, whole panel of cancer cell lines; conditions: 9 cancer cell lines, up to 50 µM
[9] = system: MDA-MB-231-BCRP cells; assay: RRA cytotoxicity, MDA-MB-231-BCRP
[10] = system: U87MG glioblastoma cells; assay: RRA cytotoxicity, U87MG; conditions: Homo sapiens, U-87 MG, 72 h
[11] = system: HepG2 hepatocarcinoma cells; assay: RRA cytotoxicity, HepG2; conditions: Homo sapiens, HepG2, 72 h
[12] = system: CEM/ADR5000 leukemia cells (P-gp-overexpressing); assay: RRA cytotoxicity, CEM/ADR5000
[13] = system: normal AML12 hepatocytes; assay: RRA cytotoxicity, normal AML12 hepatocytes; conditions: Mus musculus, AML12, 72 h

O=c1c(O)c(-c2ccc(O)c(O)c2)oc2cc(O)cc(O)c12 [Compound 4, quercetin]
IC50 [1]: > 50 µM | IC50 [2]: 101 µM | IC50 [3]: 27.3 ± 3.12 µM | IC50 ([3]; Homo sapiens): 27 µM | IC50 [4]: > 50 µM | IC50 [5]: 25 µM | IC50 [6]: 42.3 ± 3.29 µM | IC50 [7]: > 50 µM | Cytotoxic activity in the panel [8]: selectively active | IC50 ([9]; Homo sapiens, MDA-MB-231/BCRP, 72 h): > 50 µM | Degree of resistance ([9]; IC50 MDA-MB-231-BCRP versus MDA-MB-231-pcDNA): > 1.18 | IC50 [10]: > 50 µM | IC50 [11]: > 50 µM | IC50 ([12]; Homo sapiens, ADR5000, 72 h): > 50 µM | Degree of resistance ([12]; IC50 CEM/ADR5000 versus CCRF-CEM): > 1.83 | IC50 [13]: > 50 µM
